The record followed here is patent publication US11820756B2, “Bradykinin B2 receptor antagonists” (Pharvaris Netherlands B.V., priority 2017, dated 2023).

A word on the IC50: it is the midpoint of a concentration-inhibition curve. By microsomal CLint is commonly meant the capacity of the preparation to metabolise the compound, expressed as a volume cleared per time. Low values mean slow turnover, high ones rapid turnover.

For series [1], the target named is T1, human bradykinin B2 receptor (hB2R) (Homo sapiens, UniProt P30411).
T1 sequence (P30411 1-391): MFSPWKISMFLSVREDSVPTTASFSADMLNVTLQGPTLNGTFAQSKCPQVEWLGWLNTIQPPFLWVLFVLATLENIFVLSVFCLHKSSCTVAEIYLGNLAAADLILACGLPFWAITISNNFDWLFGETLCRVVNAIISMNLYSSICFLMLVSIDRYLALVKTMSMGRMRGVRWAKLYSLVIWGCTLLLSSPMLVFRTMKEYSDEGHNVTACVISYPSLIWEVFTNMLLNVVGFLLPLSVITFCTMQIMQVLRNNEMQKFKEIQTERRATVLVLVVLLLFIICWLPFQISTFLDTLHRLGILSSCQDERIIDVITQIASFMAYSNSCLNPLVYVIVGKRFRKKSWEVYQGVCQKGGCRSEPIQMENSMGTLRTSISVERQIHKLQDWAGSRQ
Nature of the series: cell-based human bradykinin B2 receptor calcium mobilization (hB2R-CaM) assay. To be noted: for IC50: HTS041C cells, bradykinin at EC80, calcium mobilization, read-out: IC50-value towards human bradykinin B2 receptor (hB2R). Put shortly:
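HTS041C cells stably expressing hB2R were serum-reduced, loaded with Calcium 6 dye and pre-incubated with compound (8-point, n=2, 0.1% DMSO) for 25 min at 37° C. Bradykinin was then added at EC80. IC50 came from a 4-parameter logistic fit of the max-min fluorescence signal (485/525 nm).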
On the technique in general: Calcium assays in cells follow changes in intracellular calcium, usually with a dye or a luminescent sensor.

Series [2] in a line: Caco-2 cell permeability assay (efflux ratio). The series is classed as in vitro ADME, human. The settings on record: human, Caco-2, Papp B to A/Papp A to AB, differentiated Caco-2 cell monolayer; read-out: Caco-2 BA/AB (efflux ratio). Here is the method:
(§1) The permeability of the test compounds was determined with a Caco-2 cell permeability assay according to Hubatsch I. et al (Nat. Protoc. 2007, 2 (9), 2111-2119).
(§2) The Caco-2 cell line is a continuous cell of heterogeneous human epithelial colorectal adenocarcinoma cells. When cultured as a confluent monolayer on a permeable support such as a cell culture insert filter, the cells differentiate to form a polarized epithelial cell monolayer that provides a physical and biochemical barrier to the passage of ions and small molecules. In form of the confluent monolayer, the Caco-2 cells serve in the pharmaceutical industry as a well established in vitro model of the human small intestinal mucosa to predict the absorption of orally administered drugs. Assessing transport in both directions (apical to basolateral (A-B) and basolateral to apical (B-A)) across the cell monolayer enables an efflux ratio to be determined which provides an indicator as to whether a compound undergoes active efflux. […] As will be appreciated, active efflux substantially compromises oral bioavailability.

Series [3] in a line: metabolic stability assay in rat liver microsomes. The series is classed as in vitro ADME. To be noted: for microsomal CLint at 1 μM: pH 7.4, male Wistar rat liver microsomes, 0.5 mg protein/mL, 1 μM test compound, NADPH. Here is the method: Hepatic clearance is the most important drug elimination mechanism in the body and many marketed compounds are cleared by hepatic cytochrome P450-mediated metabolism. The excretion or elimination property of the test compounds was determined with a metabolic stability assay according to Obach R S (Drug Metab. Dispos. 1999, 27(11), 1350-1359).
Assays were performed in 96-deepwell-plates using liver microsomes pooled from male Wistar rats (Corning). Rat liver microsomal incubations were conducted in duplicate and incubation mixtures consisted of liver microsomes (0.5 mg microsomal protein/mL), test compound (1 μM), MgCl2 (2 mM), and NADPH (1 mM) in a total volume of 0.7 ml sodium phosphate buffer (100 mM, pH 7.4). Reactions were commenced with the addition of NADPH and shaken on a horizontal shaker with a fitted heating block at 37° C. At t=0 min and the time points: 10 min, 30 min and 60 min; aliquots (70 μL) were removed from the incubations and added to 140 μl termination mixtures. Termination mixtures consisted of acetonitrile supplemented with diazepam, diclofenac and griseofulvin as internal analytical standards. The quenched samples were processed by mixing and centrifugation (2,200×g, 5 minutes). The particle free supernatant was diluted 1+1 with deionised water and subsequently subjected to LC-MS for quantitative bioanalysis in terms of test compound depletion (pump flow rate: 600 μL/min; Kinetex Phenyl-Hexyl analytical column 2.6 μm, 50×2.1 mm (Phenomenex, Germany)). Incubations containing verapamil at a concentration of 1 μM were used as high clearance positive control (PC; n=2), and incubations without NADPH (70 μl phosphate buffer (supplemented with 2 mM MgCl2) instead of 70 μL NADPH solution), in order to verify that any apparent loss of test item in the assay incubation was due to metabolism, were used as negative control (NC; n=2).
Clint data allow to predict the hepatic clearance in vivo, or, in other words, can be used as an indicator for the half life of a compound in vivo and its oral bioavailability. Highly cleared compounds are generally considered to be unfavourable as they are rapidly cleared in vivo resulting in a short duration of action. Said another way, a lower in vitro intrinsic clearance is usually indicative of a longer half life in vivo and of a better oral bioavailability.
(In general: Liver microsomes are vesicles of endoplasmic reticulum, rich in cytochrome P450 enzymes.)

For series [4], the system named is differentiated Caco-2 cell monolayer. Nature of the series: Caco-2 cell permeability assay (efflux ratio). The series is classed as in vitro ADME, human. The settings on record: Papp B to A/Papp A to AB. Here is the method: as §1, §2

Consider `Cc1cc(-c2ncnn2C)c2cccc(OCc3c(Cl)cc(F)cc3[C@H](C)NC(=O)COC(F)F)c2n1` [Compound 6, (S)—N-(1-(3-chloro-5-fluoro-2-((2-methyl-4-(1-methyl-1H-1,2,4-triazol-5-yl)quinolin-8-yloxy)methyl)phenyl)ethyl)-2-(difluoromethoxy)acetamide], for which the half-maximal inhibitory concentration (IC50) in series [1] is at most 50 nM. Further, in series [2], the efflux ratio stood at 1. Moreover, the “fold lower Clint as compared to Comparative Compound No. 171” value in series [3] (versus Comparative Compound No. 171) is given as 17.8 fold. Besides, the “fold lower Clint as compared to Comparative Compound No. 174” value in series [3] (versus Comparative Compound No. 174) came to 4.8 fold.
Turning to `Cc1cc(-n2cc(F)cn2)c2cccc(OCc3c(Cl)cncc3C(C)NC(=O)[C@H](C)O)c2n1` (stereo partly drawn) [compound 169], in series [2], the efflux ratio is above 2. The “Caco-2 BA/AB (efflux ratio)” value in series [4] is listed as 3.4. The molecule further had an intrinsic clearance (microsomal CLint) at 1 μM in series [3] of 427 µL/min/mg.
Take `Cc1cc(-n2cc(F)cn2)c2cccc(OCc3c(Cl)cc(F)cc3[C@H](C)NC(=O)[C@@H](C)O)c2n1` [Compound 1, (R)—N—((S)-1-(3-chloro-5-fluoro-2-((4-(4-fluoro-1H-pyrazol-1-yl)-2-methylquinolin-8-yloxy)methyl)phenyl)ethyl)-2-hydroxypropanamide]: the IC50 in series [1] lay in the range of 51 to 250 nM. In addition, the efflux ratio in series [2] was 0.7. In series [3], this molecule showed a microsomal CLint at 1 μM of 56 µL/min/mg.
Consider `[2H][C@@](C)(NC(=O)COC(F)F)c1cc(F)cc(Cl)c1COc1cccc2c(-c3ncnn3C)cc(C)nc12` [Compound 11, (S)—N-(1-deutero-1-(3-chloro-5-fluoro-2-((2-methyl-4-(1-methyl-1H-1,2,4-triazol-5-yl)quinolin-8-yloxy)methyl)phenyl)ethyl)-2-(difluoromethoxy)acetamide], for which the IC50 in series [1] was at most 50 nM. Also, the efflux ratio in series [2] worked out at 1.3. For the same molecule, the microsomal CLint at 1 μM in series [3] was 20 µL/min/mg.
Turning to `Cc1cc(-c2ncnn2C)c2cccc(OCc3c(Cl)cccc3C(C)NC(=O)COC(F)F)c2n1` (stereo not drawn) [compound 174, reference compound], the efflux ratio in series [2] is 1.3. This molecule also yielded a microsomal CLint at 1 μM in series [3] of 135 µL/min/mg.
The like results for `Cc1cc(-n2cc(F)cn2)c2cccc(OCc3c(Cl)cccc3C(C)NC(=O)[C@@H](C)O)c2n1` (stereo partly drawn) [compound 173, reference compound] were, in that order, 1.1 and 132 µL/min/mg.
The matching figures for `Cc1cc(-n2cc(F)cn2)c2cccc(OCc3c(Cl)cccc3C(C)NC(=O)[C@H](C)O)c2n1` (stereo partly drawn) [compound 172, reference compound]: 1.6 and 56 µL/min/mg.
Regarding `Cc1cc(-n2cc(F)cn2)c2cccc(OCc3c(Cl)cncc3C(C)NC(=O)[C@@H](C)O)c2n1` (stereo partly drawn) [compound 170], in series [2], the efflux ratio was above 2. Moreover, the “Caco-2 BA/AB (efflux ratio)” value in series [4] is 2.9. The microsomal CLint at 1 μM in series [3] turned out to be 329 µL/min/mg.
Regarding `Cc1cc(-c2ncnn2C)c2cccc(OCc3c(Cl)cncc3C(C)NC(=O)COC(F)F)c2n1` (stereo not drawn) [compound 171], the “Caco-2 BA/AB (efflux ratio)” value in series [4] stood at 7.7.
Take `Cc1cc(-n2cc(F)cn2)c2cccc(OCc3c(Cl)cc(F)cc3[C@H](C)NC(=O)[C@H](C)O)c2n1` [Compound 13]: the IC50 in series [1] was 251 to 1000 nM. Also, the “fold improvement of relative IC50 as compared to Comparative Compound No. 169” value in series [1] (versus Comparative Compound No. 169) came to 7.5 fold. Further, the “fold improvement of relative IC50 as compared to Comparative Compound No. 172” value in series [1] (versus Comparative Compound No. 172) amounted to 3.8 fold. In series [2], the efflux ratio was determined as 0.6. The intrinsic clearance (microsomal CLint) at 1 μM in series [3] was determined as 13 µL/min/mg.
For `CC(=O)C(=O)N[C@@H](C)c1cc(F)cc(Cl)c1COc1cccc2c(-n3cc(F)cn3)cc(C)nc12` [Compound 55], the IC50 in series [1] fell in the range of 251 to 1000 nM.
On to `Cc1cc(-c2ncnn2C)c2cccc(OCc3c(Cl)cc(F)cc3[C@H](C)NC(=O)[C@@H](C)OC(F)F)c2n1` [Compound 85], for which, in series [1], the IC50 is at most 50 nM.
The same measure, in the same setting: to `CCOCC(=O)N[C@@H](C)c1cc(F)cc(Cl)c1COc1cccc2c(-n3cc(F)cn3)cc(C)nc12` [Compound 18] belongs at most 50 nM.
In the case of `[2H]C([2H])([2H])[C@H](NC(=O)COC(F)F)c1cc(F)cc(Cl)c1COc1cccc2c(-c3ncnn3C)cc(C)nc12` [Compound 202], in series [1], the IC50 was at most 50 nM.
As to `CO[C@@H](C)C(=O)N[C@@H](C)c1cc(F)cc(Cl)c1COc1cccc2c(-n3cc(F)cn3)cc(C)nc12` [Compound 16], the IC50 in series [1] is at most 50 nM.
The same measure, in the same setting: as for `CCc1ncnn1-c1cc(C)nc2c(OCc3c(Cl)cc(F)cc3[C@H](C)NC(=O)c3cocn3)cccc12` [Compound 170], the figure is at most 50 nM; as for `Cc1cc(-n2cnc(C)n2)c2cccc(OCc3c(Cl)cc(F)cc3[C@H](C)NC(=O)COC(F)F)c2n1` [Compound 10, (S)—N-(1-(3-chloro-5-fluoro-2-((2-methyl-4-(3-methyl-1H-1,2,4-triazol-1-yl)quinolin-8-yloxy)methyl)phenyl)ethyl)-2-(difluoromethoxy)acetamide], 51 to 250 nM.
On the same count and under the same terms, to `[2H][C@@](C)(NC(=O)[C@@H](C)F)c1cc(F)cc(Cl)c1COc1cccc2c(-c3ncnn3C)cc(C)nc12` [Compound 211] belongs at most 50 nM; to `[2H][C@@](C)(NC(=O)[C@H](C)F)c1cc(F)cc(Cl)c1COc1cccc2c(-n3ncnc3C)cc(C)nc12` [Compound 212], at most 50 nM; to `Cc1cc(-c2ncnn2C)c2cccc(OCc3c(Cl)cc(F)cc3[C@H](C)NC(=O)[C@@H]3CC[C@H](C)O3)c2n1` [Compound 133], at most 50 nM.
Same read-out and setting: to `Cc1cc(-c2ccnn2C)c2cccc(OCc3c(Cl)cc(F)cc3[C@H](C)NC(=O)c3cnco3)c2n1` [Compound 196] belongs at most 50 nM; to `Cc1cc(-n2cc(F)cn2)c2cccc(OCc3c(Cl)cc(F)cc3[C@H](C)NC(=O)C[C@H](C)O)c2n1` [Compound 27], at most 50 nM.
For `Cc1cc(-n2nc(C)nc2C)c2cccc(OCc3c(Cl)cc(F)cc3[C@H](C)NC(=O)COC(F)F)c2n1` [Compound 134], the IC50 in series [1] is at most 50 nM.
Same read-out and setting: to `CC[C@H](NC(=O)C(F)F)c1cc(F)cc(Cl)c1COc1cccc2c(-n3cc(F)cn3)cc(C)nc12` [Compound 151] belongs 51 to 250 nM.
On the same count and under the same terms, to `Cc1cc(-c2ncnn2C)c2cccc(OCc3c(Cl)cc(F)cc3[C@H](C)NC(=O)c3ocnc3C)c2n1` [Compound 126] belongs at most 50 nM; to `Cc1cc(-c2ccnn2C)c2cccc(OCc3c(Cl)cc(F)cc3[C@H](C)NC(=O)C(F)F)c2n1` [Compound 176], at most 50 nM; to `Cc1cc(-c2ccnn2C)c2cccc(OCc3c(Cl)cc(F)cc3[C@H](C)NC(=O)C(C)(C)O)c2n1` [Compound 184], at most 50 nM.
